Publication PMC6376178 (Theranostics, 2019)

Biological target: T1, USP5 (ubiquitin-specific protease 5) (Homo sapiens, UniProt P45974)
T1 sequence (P45974 2-858): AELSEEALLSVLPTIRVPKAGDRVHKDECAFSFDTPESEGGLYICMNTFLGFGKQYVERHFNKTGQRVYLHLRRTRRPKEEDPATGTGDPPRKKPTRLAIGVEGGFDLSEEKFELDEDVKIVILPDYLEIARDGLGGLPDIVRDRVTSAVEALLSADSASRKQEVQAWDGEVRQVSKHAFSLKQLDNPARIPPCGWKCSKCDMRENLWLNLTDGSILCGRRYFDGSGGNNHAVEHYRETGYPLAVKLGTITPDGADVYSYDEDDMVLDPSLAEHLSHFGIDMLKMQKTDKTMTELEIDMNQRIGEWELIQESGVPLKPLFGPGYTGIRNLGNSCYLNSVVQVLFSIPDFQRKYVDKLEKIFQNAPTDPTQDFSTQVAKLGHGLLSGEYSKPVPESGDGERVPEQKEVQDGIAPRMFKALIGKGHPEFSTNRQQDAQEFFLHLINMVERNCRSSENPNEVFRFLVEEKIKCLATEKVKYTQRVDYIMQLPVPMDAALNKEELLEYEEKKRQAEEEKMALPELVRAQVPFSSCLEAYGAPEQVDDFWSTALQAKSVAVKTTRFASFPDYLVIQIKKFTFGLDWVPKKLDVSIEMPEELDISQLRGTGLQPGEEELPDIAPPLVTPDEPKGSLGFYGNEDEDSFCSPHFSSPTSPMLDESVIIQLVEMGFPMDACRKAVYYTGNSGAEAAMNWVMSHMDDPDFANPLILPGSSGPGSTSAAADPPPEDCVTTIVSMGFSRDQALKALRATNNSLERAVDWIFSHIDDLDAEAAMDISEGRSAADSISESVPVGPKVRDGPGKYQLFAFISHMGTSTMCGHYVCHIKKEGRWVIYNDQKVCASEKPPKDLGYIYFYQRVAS
Assay: SPR
Type: binding

- Kd: 25.1 µM
Structure (SMILES): COc1ccc(-c2coc3cc(O)ccc3c2=O)cc1 [Formononetin]
